Reference: ChEMBL document CHEMBL1156829 (Proc Natl Acad Sci U S A, 2008)

How the values were obtained:
[1] = tested on: Plasmodium falciparum; test: NOVARTIS: Inhibition of Plasmodium falciparum 3D7 (drug-susceptible) proliferation in erythrocyte-based infection assay; assay type: functional, organism-based; conditions: Plasmodium falciparum, 3D7
[2] = tested on: Plasmodium falciparum; test: NOVARTIS: Inhibition of Plasmodium falciparum W2 (drug-resistant) proliferation in erythrocyte-based infection assay; assay type: functional, organism-based; conditions: Plasmodium falciparum, W2; read-out: EC50
[3] = NOVARTIS: Cytotoxicity against human hepatocellular carcinoma cell line (Huh7); assay type: toxicity, cell-based, Huh-7; conditions: Huh7 cells (hepatocellular carcinoma cell line)

Row | Compound | EC50 [1] [nM] | EC50 [2] [nM] | CC50 [3] [nM]
1 | OC1=C2C(=Nc3ccccc3SC2c2ccccc2)c2ccccc21 (stereo not drawn) | 46.7 | 112 | 27100
2 | Cc1ccc(NC2=C(N3CCCCC3)C(=O)c3ccccc3C2=O)cc1 | 131 | 77.5 | 18500
3 | O=C(NNc1ccccc1F)C1CCC1 | 490 | 40.6 | > 10000
4 | Clc1ccc(-c2c[n+](Cc3ccccc3Cl)c3n2CCC3)cc1 | 784 | 384 | > 87000
5 | CCOC(=O)c1c(NC(=O)C(C)Sc2nnc(CNC(=O)c3ccco3)n2-c2cccc(Cl)c2)sc2c1CCCC2 (stereo not drawn) | > 12500 | 424 | > 100000
6 | c1ccc(-c2csc(Nc3nc4cc5c(cc4s3)OCO5)n2)nc1 | 650 | 417 | > 100000
7 | Cc1ccc(N2C(N)=NC(N)=NC2(C)C)cc1 | 19.3 | 430 | > 100000
8 | CCOC(=O)c1[nH]c2ccc(C)cc2c1N=NN(C)C | 181 | 115 | 26300
9 | CCCCCCCC[n+]1c(C)n(CC)c2ccc(Cl)cc21 | 139 | 239 | 54900
10 | O=C(CC(=O)N1CCOCC1)Nc1ccc2nc3n(c(=O)c2c1)CCCCC3 | > 10000 | 432 | > 100000
11 | c1ccc(-c2ccnc3c2ccc2c(-c4ccccc4)ccnc23)cc1 | 329 | 430 | > 100000
12 | CCCNC(=O)c1ccc(OC2CCN(CC3CCCCC3)CC2)c(Cl)c1 | 287 | 181 | 42400
13 | CCOC(=O)c1cnc2ccccc2c1NCCCN(C)C | 198 | 222 | 52100
14 | COc1ccc(NC(C)=C2C(=O)c3ccccc3C2=O)c(OC)c1 | 1270 | 426 | > 100000
15 | COc1ccccc1C(=O)ON=C(N)Cc1cccc2ccccc12 | 352 | 212 | 49600
16 | c1ccc(Cn2c(N=NNc3nc4ccccc4n3Cc3ccccc3)nc3ccccc32)cc1 | 85.4 | 81.9 | 19200
17 | O=C(NCc1ccco1)c1ccc(OC2CCN(Cc3ccncc3)CC2)c(Cl)c1 | 683 | 427 | > 100000
18 | COC(=O)c1ccc2c(=O)n(Cc3ccc4c(c3)OCO4)c(SCC(=O)n3nc(C)cc3N)nc2c1 | 144 | 41.2 | > 10000
19 | Cc1c(C#N)c2ccccc2n1CC(=O)NCCc1ccccc1 | 398 | 411 | > 100000
20 | C=CCC1C=C(Cc2ccccc2)CC(CC=C)N1 (stereo not drawn) | 4310 | 188 | 46000
21 | COc1ccccc1C(=O)Oc1ccccc1-c1nc2ccccn2c1NC(C)(C)CC(C)(C)C | 1580 | 40.8 | > 10000
22 | CC1=C(C(=O)OC(C)C)C(c2ccc(Br)cc2)C2=C(CC(c3ccc(Cl)cc3)CC2=O)N1 (stereo not drawn) | 1440 | 404 | > 100000
23 | COc1ccc(Nc2nc(NN=Cc3cccc([N+](=O)[O-])c3)nc(Nc3ccc([N+](=O)[O-])cc3)n2)cc1 | 406 | 404 | > 100000
24 | O=c1c2ccccc2[nH]c2ccc(I)cc12 | 393 | 418 | > 100000
25 | CCCCNC1=CC(=O)C(=O)c2ccccc21 | 481 | 324 | > 77800
26 | CCCCc1ccc(C(=O)N(C)CCCNc2ccnc3cc(Cl)ccc23)cc1 | 427 | 41.6 | > 10000

Row | Compound | EC50 [1] [nM] | EC50 [2] [nM] | CC50 [3] [nM]
27 | COc1ccc(NC2=C(c3ccc(OC)cc3)C(=O)c3ccccc32)cc1 | 437 | 423 | > 100000
28 | CCCc1nc2ccc(NC(=O)c3ccco3)cc2c(=O)n1Cc1ccc(-c2ccccc2)cc1 | 262 | 422 | > 100000
29 | CCOC(=O)c1ccc(NC2=C(N3CCCCC3)C(=O)c3ccccc3C2=O)cc1 | 243 | 334 | > 80500
30 | O=C(NCCc1ccccc1)c1cnc(NCCCN2CCCC2)nc1NCC1CCCCC1 | 603 | > 42.5 | > 10000
31 | CCOC(=O)c1c(S(=O)(=O)Nc2ccc(C(C)(C)C)cc2)c(-c2ccccc2)n(-c2ccccc2)c1C | 696 | 425 | > 100000
32 | c1ccc2c(NCCc3c[nH]c4ccccc34)c3ccccc3nc2c1 | 86 | 31.6 | 7080
33 | CCC(CC)CN1CCC(O)(c2ccc3oc(C(=O)Nc4ccc(OC)c(OC)c4)cc3c2)CC1 | 344 | 360 | > 85800
34 | OC(CN1CCN(Cc2ccccc2)CC1)Cn1c2ccc(Cl)cc2c2cc(Cl)ccc21 (stereo not drawn) | 218 | 65.7 | 15700
35 | O=C(NCc1cccs1)c1ccc(OC2CCN(CC3CCCCC3)CC2)c(Cl)c1 | 719 | 44.6 | > 10000
36 | OC(CN1CCN(CC=Cc2ccccc2)CC1)Cn1c2ccc(Cl)cc2c2cc(Cl)ccc21 (stereo not drawn) | 181 | 75 | 17900
37 | CCOC(=O)c1c(C)[nH]c(C)c1S(=O)(=O)N1CCCC(C(=O)N2CCN(c3cc(C)ccc3C)CC2)C1 (stereo not drawn) | 231 | 367 | > 82300
38 | O=C1c2ccccc2C2=Nc3ccccc3SC(c3cccc(F)c3)C12 (stereo not drawn) | 86.7 | 135 | 30300
39 | CC(C)(C)CC(C)(C)Nc1c(-c2ccccc2OC(=O)c2cccc(Cl)c2)nc2ccccn12 | 629 | 41.6 | > 10000
40 | COc1ccc(OC)c(-c2ccc(C(=O)N3CCN(CC=Cc4ccccc4)CC3)c(N(C)C)n2)c1 | 94.6 | 145 | 32800
41 | C=CC1CN2CCC1CC2C(OC(=O)c1ccco1)c1ccnc2ccccc12 (stereo not drawn) | 35.7 | 181 | 41800
42 | COc1cc(C2C3=C(CC(C)(C)CC3=O)Nc3ccccc3N2C(=O)C(C)C)cc(OC)c1OC (stereo not drawn) | > 1250 | 40.7 | > 10000
43 | CC(NC(=S)N(Cc1ccco1)Cc1cc2cc3c(cc2[nH]c1=O)OCO3)c1ccccc1 (stereo not drawn) | 1370 | 405 | > 100000
44 | CCCCNC(=O)C(c1cccc(OC)c1)N1C(=O)c2cc(OCCc3cccc(OC)c3)ccc2NC(=O)C1CO (stereo not drawn) | 110 | 42.9 | > 10000
45 | CCCc1c(C)nc2ccccc2c1O | 630 | 429 | > 100000
46 | S=C(Nc1ccccc1)N1CCCN(c2nc3ccc(Cl)cc3s2)CC1 | 506 | 370 | > 86900
47 | COc1cccc(CCN2Cc3ccc(C(=O)NC(C)C)cc3N=C2c2cccnc2)c1 | 17.1 | > 42.3 | > 10000
48 | COc1cc2nc(NC(=N)N)nc(C)c2cc1OC | 24.4 | 44.1 | > 10000
49 | O=C(c1ccccc1)N1CCN(c2ccccc2NC(=O)C(Cl)(Cl)Cl)CC1 | 538 | 425 | > 100000
50 | Nc1nonc1-n1nnc(C(=O)NN=Cc2cccc(Cl)c2)c1-c1ccccc1 | 427 | 441 | > 100000
51 | COc1ccc(-c2c[n+](CC(=O)c3ccc([N+](=O)[O-])cc3)c3n2CCC3)cc1 | 518 | 426 | > 100000
